Assay: In vitro metabolic stability in rat hepatocytes (including calculation of hepatic in vivo blood clearance)
Assay type: in vitro ADME
Conditions: Han Wistar, hepatocytes (freshly isolated, suspension), read-out: CL (hepatic in vivo blood clearance) (converted)
Method: Investigation of In Vitro Metabolic Stability in Rat Hepatocytes (Including Calculation of Hepatic In Vivo Blood Clearance (CL))
Hepatocytes from Han Wistar rats were isolated via a 2-step perfusion method. After perfusion, the liver was carefully removed from the rat: the liver capsule was opened and the hepatocytes were gently shaken out into a Petri dish with ice-cold WME. The resulting cell suspension was filtered through sterile gaze in 50 ml falcon tubes and centrifuged at 50×g for 3 min at room temperature. The cell pellet was resuspended in 30 ml WME and centrifuged through a Percoll® gradient for 2 times at 100×g. The hepatocytes were washed again with Williams' medium E (WME) and resuspended in medium containing 5% FCS. Cell viability was determined by trypan blue exclusion.
For the metabolic stability assay liver cells were distributed in WME containing 5% FCS to glass vials at a density of 1.0×10^6 vital cells/ml. The test compound was added to a final concentration of 1 μM. During incubation, the hepatocyte suspensions were continuously shaken and aliquots were taken at 2, 8, 16, 30, 45 and 90 min, to which equal volumes of cold methanol were immediately added.
Samples were frozen at −20° C. over night, after subsequently centrifuged for 15 minutes at 3000 rpm and the supernatant was analyzed with an Agilent 1200 HPLC-system with LCMS/MS detection.
The half-life of a test compound was determined from the concentration-time plot. From the half-life the intrinsic clearances were calculated. Together with the additional parameters liver blood flow, amount of liver cells in vivo and in vitro. The hepatic in vivo blood clearance (CL) and the maximal oral bioavailability (Fmax) was calculated. The following parameter values were used: Liver blood flow—4.2 L/h/kg rat; specific liver weight—32 g/kg rat body weight; liver cells in vivo—1.1×10^8 cells/g liver, liver cells in vitro—0.5×10^6 ml.

Row | CLhep predicted at 1 μM [mL/min/kg] | SMILES
1 | 56.7 | Cc1cc(-c2cnc3c(NCCC(F)(F)F)cc(C(O)c4cccc(F)c4O)nn23)ccc1C(=O)NC1CC1 (racemic) [Example 3, (RS)—N-Cyclopropyl-4-{6-[(3-fluoro-2-hydroxyphenyl)(hydroxy)methyl]-8-[(3,3,3-trifluoropropyl)amino]imidazo[1,2-b]pyridazin-3-yl}-2-methylbenzamide]
2 | 45 | Cc1cc(-c2cnc3c(NCCC(F)(F)F)cc(C(C)(O)c4cccc(F)c4O)nn23)ccc1C(=O)NC1CC1 (racemic) [Example 4, (RS)—N-Cyclopropyl-4-{6-[1-(3-fluoro-2-hydroxyphenyl)-1-hydroxyethyl]-8-[(3,3,3-trifluoropropyl)amino]imidazo[1,2-b]pyridazin-3-yl}-2-methylbenzamide]
3 | 35 | Cc1cc(-c2cnc3c(NCCC(F)(F)F)cc(C(F)c4cccc(F)c4)nn23)ccc1C(=O)NC1CC1 (racemic) [Example 5, (RS)—N-Cyclopropyl-4-{6-[fluoro(3-fluorophenyl)methyl]-8-[(3,3,3-trifluoropropyl)amino]imidazo[1,2-b]pyridazin-3-yl}-2-methylbenzamide]
4 | 38.3 | Cc1cc(-c2cnc3c(NCCC(F)(F)F)cc(C(O)c4cc(F)ccc4F)nn23)ccc1C(=O)NC1CC1 (racemic) [Example 11, (RS)—N-Cyclopropyl-4-{6-[(2,5-difluorophenyl)(hydroxy)methyl]-8-[(3,3,3-trifluoropropyl)amino]imidazo[1,2-b]pyridazin-3-yl}-2-methylbenzamide]
5 | 50 | COc1ccc(Cc2cc(NCCC(F)(F)F)c3ncc(-c4ccc(C(=O)NC5CC5)c(C)c4)n3n2)cc1F [Comparative Example 1, N-Cyclopropyl-4-{6-(3-fluoro-4-methoxybenzyl)-8-[(3,3,3-trifluoropropyl)amino]imidazo[1,2-b]pyridazin-3-yl}-2-methylbenzamide, reference compound]
6 | 68.3 | Cc1cc(-c2cnc3c(NCCC(F)(F)F)cc(Cc4cccc(F)c4O)nn23)ccc1C(=O)NC1CC1 [Comparative Example 2, N-Cyclopropyl-4-{6-(3-fluoro-2-hydroxybenzyl)-8-[(3,3,3-trifluoropropyl)amino]imidazo[1,2-b]pyridazin-3-yl}-2-methylbenzamide, reference compound]
7 | 40 | Cc1cc(-c2cnc3c(NCCC(F)(F)F)cc(Cc4cccc(F)c4)nn23)ccc1C(=O)NC1CC1 [Comparative Example 3, N-Cyclopropyl-4-{6-(3-fluorobenzyl)-8-[(3,3,3-trifluoropropyl)amino]imidazo[1,2-b]pyridazin-3-yl}-2-methylbenzamide, reference compound]
8 | 56.7 | COc1cccc(Cc2cc(NCCC(F)(F)F)c3ncc(-c4ccc(C(=O)NC5CC5)c(C)c4)n3n2)c1 [Comparative Example 4, N-cyclopropyl-4-{6-(3-methoxybenzyl)-8-[(3,3,3-trifluoropropyl)amino]imidazo[1,2-b]pyridazin-3-yl}-2-methylbenzamide, reference compound]
9 | 45 | COc1ccc(Cc2cc(NCCC(F)(F)F)c3ncc(-c4ccc(C(=O)NC5CC5)c(C)c4)n3n2)cc1 [Comparative Example 5, N-Cyclopropyl-4-{6-(4-methoxybenzyl)-8-[(3,3,3-trifluoropropyl)amino]imidazo[1,2-b]pyridazin-3-yl}-2-methylbenzamide, reference compound]
10 | 25 | COc1ccc(C(F)(F)c2cc(NCCC(F)(F)F)c3ncc(-c4ccc(C(=O)NC5CC5)c(C)c4)n3n2)cc1F [Example 2, N-Cyclopropyl-4-{6-[difluoro(3-fluoro-4-methoxyphenyl)methyl]-8-[(3,3,3-trifluoropropyl)amino]imidazo[1,2-b]pyridazin-3-yl}-2-methylbenzamide]
11 | 51.7 | COc1cccc(C(=O)c2cc(NCCC(F)(F)F)c3ncc(-c4ccc(C(=O)NC5CC5)c(C)c4)n3n2)c1 [Example 7, N-Cyclopropyl-4-{6-(3-methoxybenzoyl)-8-[(3,3,3-trifluoropropyl)amino]imidazo[1,2-b]pyridazin-3-yl}-2-methylbenzamide]
12 | 30 | C=C(c1cccc(OC)c1)c1cc(NCCC(F)(F)F)c2ncc(-c3ccc(C(=O)NC4CC4)c(C)c3)n2n1 [Example 8, N-Cyclopropyl-4-{6-[1-(3-methoxyphenyl)vinyl]-8-[(3,3,3-trifluoropropyl)amino]imidazo[1,2-b]pyridazin-3-yl}-2-methylbenzamide]
13 | 20 | COc1ccc(C(=O)c2cc(NCCC(F)(F)F)c3ncc(-c4ccc(C(=O)NC5CC5)c(C)c4)n3n2)cc1 [Example 9, N-Cyclopropyl-4-{6-(4-methoxybenzoyl)-8-[(3,3,3-trifluoropropyl)amino]imidazo[1,2-b]pyridazin-3-yl}-2-methylbenzamide]
14 | 36.7 | C=C(c1ccc(OC)cc1)c1cc(NCCC(F)(F)F)c2ncc(-c3ccc(C(=O)NC4CC4)c(C)c3)n2n1 [Example 10, N-Cyclopropyl-4-{6-[1-(4-methoxyphenyl)vinyl]-8-[(3,3,3-trifluoropropyl)amino]imidazo[1,2-b]pyridazin-3-yl}-2-methylbenzamide]
15 | 23.3 | Cc1cc(-c2cnc3c(NCCC(F)(F)F)cc(C(=O)c4cc(F)ccc4F)nn23)ccc1C(=O)NC1CC1 [Example 12, N-Cyclopropyl-4-{6-(2,5-difluorobenzoyl)-8-[(3,3,3-trifluoropropyl)amino]imidazo[1,2-b]pyridazin-3-yl}-2-methylbenzamide]
16 | 18.3 | COc1ccc(C(=O)c2cc(NCCC(F)(F)F)c3ncc(-c4ccc(C(=O)NC5CC5)c(C)c4)n3n2)cc1F [Example 13, N-Cyclopropyl-4-{6-(3-fluoro-4-methoxybenzoyl)-8-[(3,3,3-trifluoropropyl)amino]imidazo[1,2-b]pyridazin-3-yl}-2-methylbenzamide]
17 | 35 | Cc1cc(-c2cnc3c(NCCC(F)(F)F)cc(C(=O)c4cccc(F)c4F)nn23)ccc1C(=O)NC1CC1 [Example 14, N-Cyclopropyl-4-{6-(2,3-difluorobenzoyl)-8-[(3,3,3-trifluoropropyl)amino]imidazo[1,2-b]pyridazin-3-yl}-2-methylbenzamide]
18 | 33.3 | C=C(c1cc(NCCC(F)(F)F)c2ncc(-c3ccc(C(=O)NC4CC4)c(C)c3)n2n1)c1cccc(F)c1F [Example 15, N-Cyclopropyl-4-{6-[1-(2,3-difluorophenyl)vinyl]-8-[(3,3,3-trifluoropropyl)amino]imidazo[1,2-b]pyridazin-3-yl}-2-methylbenzamide]
19 | 31.7 | COc1ccc(C(F)(F)c2cc(NCCC(F)(F)F)c3ncc(-c4ccc(C(=O)NC5CC5)c(C)c4)n3n2)cc1 [Example 16, N-Cyclopropyl-4-{6-[difluoro(4-methoxyphenyl)methyl]-8-[(3,3,3-trifluoropropyl)amino]imidazo[1,2-b]pyridazin-3-yl}-2-methylbenzamide]
20 | 35 | Cc1cc(-c2cnc3c(NCCC(F)(F)F)cc(C4(c5cccc(F)c5F)CC4)nn23)ccc1C(=O)NC1CC1 [Example 17, N-Cyclopropyl-4-{6-[1-(2,3-difluorophenyl)cyclopropyl]-8-[(3,3,3-trifluoropropyl)amino]imidazo[1,2-b]pyridazin-3-yl}-2-methylbenzamide]
21 | 16.7 | Cc1cc(-c2cnc3c(NCCC(F)(F)F)cc(C(F)(F)c4cccc(F)c4F)nn23)ccc1C(=O)NC1CC1 [Example 18, N-Cyclopropyl-4-{6-[(2,3-difluorophenyl)(difluoro)methyl]-8-[(3,3,3-trifluoropropyl)amino]imidazo[1,2-b]pyridazin-3-yl}-2-methylbenzamide]
22 | 50 | C=C(c1cc(NCCC(F)(F)F)c2ncc(-c3ccc(C(=O)NC4CC4)c(C)c3)n2n1)c1cc(F)ccc1O [Example 22, N-cyclopropyl-4-{6-[1-(5-fluoro-2-hydroxyphenyl)ethenyl]-8-[(3,3,3-trifluoropropyl)amino]imidazo[1,2-b]pyridazin-3-yl}-2-methylbenzamide]
23 | 36.7 | C=C(c1cccc(F)c1)c1cc(NCCC(F)(F)F)c2ncc(-c3ccc(C(=O)NC4CC4)c(C)c3)n2n1 [Example 24, N-cyclopropyl-4-{6-[1-(3-fluorophenyl)ethenyl]-8-[(3,3,3-trifluoropropyl)amino]imidazo[1,2-b]pyridazin-3-yl}-2-methylbenzamide]

Row | SMILES | CLhep predicted at 1 μM [mL/min/kg]
24 | C=C(c1ccc(OC)c(F)c1)c1cc(NCCC(F)(F)F)c2ncc(-c3ccc(C(=O)NC4CC4)c(C)c3)n2n1 [Example 1, N-Cyclopropyl-4-{6-[1-(3-fluoro-4-methoxyphenyl)ethenyl]-8-[(3,3,3-trifluoropropyl)amino]imidazo[1,2-b]pyridazin-3-yl}-2-methylbenzamide] | 43.3
25 | Cc1cc(-c2cnc3c(NCCC(F)(F)F)cc(C4(c5cc(F)ccc5O)CC4)nn23)ccc1C(=O)NC1CC1 [Example 23, N-cyclopropyl-4-{6-[1-(5-fluoro-2-hydroxyphenyl)cyclopropyl]-8-[(3,3,3-trifluoropropyl)amino]imidazo[1,2-b]pyridazin-3-yl}-2-methylbenzamide] | 41.7
